One data set addresses cathepsin B (Homo sapiens, UniProt P07858). In words: biochemical. To be noted: for inhibition at 20 µM: read-out: % inhibition of Cath. B.
For data set [1], the target named is T1, cathepsin L (Homo sapiens, UniProt P07711). In words: biochemical. To be noted: for inhibition at 20 µM: read-out: % inhibition of Cath. L.
Procedure: (§1) Inhibition of cathepsins and rhodesain was tested with the fluorogenic substrate Cbz-Phe-Arg-AMC as described previously [19]. First, a screening at 20 µM inhibitor concentration was performed. For compounds showing >60% inhibition at this concentration, the IC50 values were determined. […] The respective Ki values (Table 1) were determined from plots of the IC50 values against substrate concentration according to the Cheng–Prusoff relationship [46].
(§2) Enzyme assays / Rhodesain and Cathepsins
(§3) The assays were performe d as described previously [7,8] by incubating rhodesain in 190 μL
(§4) assay buffer (50 mM sodium acetate pH 5.5, 5 mM EDTA, 200 mM NaCl, 0.005% Brij) with 5 μL of an
(§5) inhibitor DMSO stoc k solution of a given concentrati on for 10 min at room te mperature. The reaction
(§6) was started by adding 5 μ L of 400 μM Z-Phe-Arg-7-amino-4-methylc umari n (Z-Phe-Arg-AMC) in
(§7) DMSO. The released AMC was excited at 380 nm and the upc oming fl uoresce nce measured at 460
(§8) nm at 25 °C over time. The final substrate concentration was 10 μM.
(§9) Quenching of the fluoresc ence of the released AMC by the inhibitors was acc ounted for as
described previously [9].
(§10) The cathepsin L assays wer e performed accordi ngly in 50 mM Tris buffer (pH 6.5, 5 mM EDTA,
(§11) 200 mM NaCl, 0.005% Brij) and 250 μM Z-Phe-Arg-AMC concentration (final conce ntration: 6.25 μM).
(§12) The cathepsin B (Calbioche m) assays were performed accordingly in 50 mM Tris buffer pH 6.5,
(§13) 5 mM EDTA, 200 mM NaCl and 0.005% Brij leading to final enzyme and substrate concentrati ons of
(§14) Final inhibitor c once ntrations ranged from 0.001 μM to 100.0 μM.
The target in data set [2] is T2, serine protease of the Dengue virus (DENV PR) (Dengue virus type 2, UniProt P29990).
T2 construct: the serine protease of the Dengue virus (DENV PR)
T2 sequence (P29990 1394-1440): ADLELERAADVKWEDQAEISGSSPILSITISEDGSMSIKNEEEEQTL
T2 sequence (P29990 1476-1653): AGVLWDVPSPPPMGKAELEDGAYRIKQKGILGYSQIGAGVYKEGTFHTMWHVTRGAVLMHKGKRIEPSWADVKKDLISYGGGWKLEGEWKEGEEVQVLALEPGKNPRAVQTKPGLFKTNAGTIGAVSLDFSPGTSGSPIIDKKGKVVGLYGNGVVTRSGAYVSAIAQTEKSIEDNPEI
In words: Dengue virus protease inhibition assay. The class given is biochemical. To be noted: 20 µM inhibitor.

A further data set deals with T3, S. aureus sortase A (Staphylococcus aureus, UniProt Q2FV99).
T3 construct: made in house
T3 sequence (Q2FV99 whole entry): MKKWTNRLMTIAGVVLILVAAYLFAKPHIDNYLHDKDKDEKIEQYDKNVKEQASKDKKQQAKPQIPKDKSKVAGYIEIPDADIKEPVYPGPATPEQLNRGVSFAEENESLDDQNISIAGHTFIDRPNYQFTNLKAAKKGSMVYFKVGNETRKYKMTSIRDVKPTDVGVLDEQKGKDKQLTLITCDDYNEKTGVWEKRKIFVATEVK
As to the kind of experiment: biochemical. To be noted: 20 µM final inhibitor concentration.

The target in data set [3] is T1, cathepsin L. To be noted: IC50 increases linearly with substrate concentration.
Procedure: as §1, §2, §3, §4, §5, §6, §7, §8, §9
described previously [9].
as §10, §11, §12, §13, §14
In data set [4] the target is T4, rhodesain (Trypanosoma brucei rhodesiense, UniProt Q95PM0, S297A). In words: Rhodesain inhibition, fluorogenic substrate Cbz-Phe-Arg-AMC. It counts as biochemical. To be noted: for % inhibition of Rhod.: 20 µM inhibitor.
T4 sequence (Q95PM0 126-342 S297A): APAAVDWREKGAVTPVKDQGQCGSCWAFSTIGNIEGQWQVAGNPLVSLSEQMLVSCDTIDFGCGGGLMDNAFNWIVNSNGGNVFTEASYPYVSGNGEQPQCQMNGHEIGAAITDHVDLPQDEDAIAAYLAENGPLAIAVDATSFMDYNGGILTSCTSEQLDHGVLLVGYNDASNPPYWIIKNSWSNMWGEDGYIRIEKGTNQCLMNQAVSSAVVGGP
The format of data set [5] is physicochemical. To be noted: assay buffer pH 5.5 without protease, 24 h, room temperature.
For data set [6], the target named is T4, rhodesain. In words: Hydrolysis assay of ester 7 with rhodesain, LC-MS. It counts as biochemical. To be noted: room temperature, 24 h.
Data set [7] has as its system T. b. brucei 449 cell line. As to the kind of experiment: T. b. brucei cell survival assay (ATPlite). It counts as cell-based. To be noted: Trypanosoma brucei, after 24 h, read-out: EC50 anti-trypanosomal activity. On the procedure: Ester 7 and acid 8 were tested for their anti-trypanosomal activity against T. brucei brucei using the ATPlite assay according to previously published procedures. […] The differences in anti-protease and anti-trypanosomal activity between the lipophilic ester 7 and the more hydrophilic acid 8 might be due to different cell permeabilities of the compounds. […]
NaCl) followed by 45 min incubation at room te mpe rature. […] 5 μL of […] Z-Phe-Arg-AMC were added to 195 μL of rhodesain-8 or rhodesai n-DMSO stock solutions and the upcoming fluorescence was measured over time to assure complete inhibition (see Figure SI1)). […]
For the dilution assay, […] of the rhodesain-8 stock solution were diluted with […] 50 mM sodiu m acetate buffer (pH 5.5 with 5 mM EDTA, 200 mM NaCl 5 mM DTT) and the recovery of the enzymatic activity was measured immediately after adding […] of 400 μM Z-Phe-Arg-AMC (see […]
90 μL HMI-9 medium containing 2500 cells/mL were distributed in 96-well microplate s (PerkinEl mer). […] 50 μL of ATPlite 1 step solution (PerkinEl mer) was added to each well of the microplate and luminesce nce measured at room temperature with an Infinite® M200 PRO plate reader (Tecan Trading AG). The measured values were plotted against the c omp ound concentrati ons top yie ld the dose-resp onse c urve. The EC50 values were calculated using GraF it version 5.013 (Erithacus Software Ltd.). […]

Data set [8] is classed as physicochemical. To be noted: 800 µM in rhodesain sample buffer pH 5.5 with 10% d6-DMSO. The procedure:
The interaction of the fluorinated inhibitors 7 and 8 with rhodesain was probed via ^19F NMR spectroscopy (Figure 3). […] To probe the rhodesain-mediated turnover of 7 into 8, we recorded time-resolved ^19F NMR spectra of 7 (800 µM) in the presence of 4 µM rhodesain (Figure 3b). During the measurement, the solution became clear and a dramatic difference in the chemical shift occurred to values identical to those observed for compound 8. The reaction was subsequently analyzed by MS (see Section 2.4), which confirmed the formation of the free acid 8.
Table S1 (DP4+)-results for product 12.
Lyophilized rhode sain was reconstituted at 4 mg/mL in 50 mM Na acetate, pH 5.5, 200 mM NaCl, 5 mM EDTA. […] After the addition of the inhibit ors at a final concentrati on of 0.1 mM, samples were analyzed by LC-MS using a nanoAcquity UP LC system (Waters Corporation) coupled to a nano-ESI-Q-TOF mass spectrome ter (Synapt G2-S HDMS, Waters Corporation). […]
For 19F NMR, c ompounds 7 (800 μM) or 8 (400 μM) were dissolved in rhodesain sample buffer (50 mM NaAcetate, pH 5.5, 200 mM NaCl, 5 mM Na-EDTA, 1 mM TCEP) with 10% d6-DMSO from a 40 mM inhibitor stock in d6-DMSO. Spectra were recorded at 303 K on a Bruker Avance 3 600 MHz spectrome ter with a Prodigy TCI cryoprobe (Bruker, Karlsruhe). Because 1H and 19F are measured in the same coil, protons wer e not decoupled during 19F acquisition. […]

Like-named read-outs stand apart in the source and are kept apart here.

T1 sequence (P07711 114-333): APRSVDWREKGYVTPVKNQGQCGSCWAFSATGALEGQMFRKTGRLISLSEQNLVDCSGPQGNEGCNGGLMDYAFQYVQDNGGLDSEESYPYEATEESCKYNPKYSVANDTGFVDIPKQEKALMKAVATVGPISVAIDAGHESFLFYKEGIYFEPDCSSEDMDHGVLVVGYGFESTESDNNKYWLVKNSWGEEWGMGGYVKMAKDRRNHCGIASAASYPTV
Procedure for cathepsin B: as §1, §2, §3, §4, §5, §6, §7, §8, §9
described previously [9].
as §10, §11, §12, §13, §14

Consider `CC(C)C[C@H](NC(=O)[C@H](Cc1ccccc1)NC(=O)c1ccc(Cl)nc1Cl)C(=O)OCc1ccccc1` [Compound 1], for which the inhibition at 20 µM was determined as 16% at cathepsin B, 57% on cathepsin L [1] and 19% in [2].
Regarding `CC(C)C[C@H](NC(=O)[C@H](Cc1ccccc1)Nc1cc(Cl)ncn1)C(=O)OCc1ccccc1` [Compound 2], the inhibition at 20 µM at cathepsin B amounted to 33%; on cathepsin L [1], 56%; in [2], 24%.
The like results for `CC(C)C[C@H](NC(=O)[C@H](Cc1ccccc1)Nc1cc(F)c([N+](=O)[O-])cc1[N+](=O)[O-])C(=O)OCc1ccccc1` [Compound 3] were, in that order, 22%, 60% and 28%.
In the case of `CC(C)C[C@H](NC(=O)[C@H](Cc1ccccc1)NC(=O)c1cccc([N+](=O)[O-])c1F)C(=O)OCc1ccccc1` [Compound 4], the inhibition at 20 µM on cathepsin B turned out to be 20%; against S. aureus sortase A it was 11%; on cathepsin L [1] it was 99%; in data set [2], 10%. For the same compound, on cathepsin L [3], the “inhibition mode from IC50 at different substrate concentrations” value is “competitive inhibition”. Further, the inhibition constant (Ki) was found to be 660 nM at cathepsin L [1] and 290 nM on rhodesain [4] (read-out: Ki Rhod.). Moreover, the “% inhibition of Rhod.” value at rhodesain [4] is reported as 75%.
As for `CC(C)C[C@H](NC(=O)[C@H](Cc1ccccc1)NC(=O)Nc1ccc(F)c([N+](=O)[O-])c1)C(=O)OCc1ccccc1` [Compound 5], the inhibition at 20 µM on cathepsin B turned out to be 10%; on cathepsin L [1], 8%; in data set [2] it was 11%.
For `CC(C)C[C@H](NC(=O)[C@H](Cc1ccccc1)NC(=O)c1cc([N+](=O)[O-])ccc1F)C(=O)OCc1ccccc1` [Compound 6], the inhibition at 20 µM is 21% on cathepsin B, 50% at cathepsin L [1] and 12% in data set [2].
Regarding `CC(C)C[C@H](NC(=O)[C@H](Cc1ccccc1)Nc1cc([N+](=O)[O-])c([N+](=O)[O-])cc1F)C(=O)OCc1ccccc1` [Compound 7], in data set [5], the “hydrolysis of ester by reaction buffer” value is “not hydrolyzed”. Further, the inhibitory constant (Ki) at cathepsin B came to 4400 nM; on cathepsin L [1], 1600 nM. Moreover, the inhibition at 20 µM on cathepsin B came to 63%; on S. aureus sortase A, 16%; at cathepsin L [1] it was 98%; in [2] it was 31%. For the same compound, the “conversion of ester into free acid by catalytically active rhodesain” value on rhodesain [6] was “complete conversion”. Also, in [7], the EC50 turned out to be 95.3 nM. In addition, at cathepsin L [3], the “inhibition mode from IC50 at different substrate concentrations” value is listed as “competitive inhibition mode”. In addition, the solubility result in data set [8] is “poor solubility”. The “% inhibition of Rhod.” value on rhodesain [4] is reported as 45/nd %.
For the compound `CC(C)C[C@H](NC(=O)[C@H](Cc1ccccc1)Nc1cc([N+](=O)[O-])c([N+](=O)[O-])cc1F)C(=O)O` [Compound 8], the inhibition constant Ki amounted to 1500 ± 290 nM at cathepsin B, 3000 ± 900 nM at cathepsin L [1] and 4 nM on rhodesain [4]. Moreover, at 20 µM the inhibition at S. aureus sortase A was 0%. The EC50 in data set [7] amounted to 18500 nM. Besides, the “reversibility of rhodesain inhibition” value on rhodesain [4] (IC50 at 10 min vs 45 min preincubation, dilution assay) was “reversible inhibition”.
